Literature values in patent US20100292326A1, “PHARMACEUTICAL COMPOSITION COMPRISING S-NITROSOGLUTATHIONE AND POLYSACCHARIDE” (priority 2007, published 2010).

Conditions: buffer

For `N[C@@H](CCC(=O)N[C@@H](CSN=O)C(=O)NCC(=O)O)C(=O)O` [GSNO, S-nitrosoglutathione], the half-life is given as 5.5 h.
